Source: ChEMBL document CHEMBL1158010, “New cytotoxic oxygenated fucosterols from the brown alga Turbinaria conoides” (1999)
Converted amounts (≈) assume the structure as drawn.

Columns and labels:
[1] = system: P388; assay: Cytotoxicity against mouse P388 cells after 3 days; conditions: P388, 72 h, read-out: ED50 (the source's name)
[2] = system: KB; assay: Cytotoxicity against human KB cells after 3 days by MTT assay; conditions: 72 h, read-out: ED50 (the source's name)
[3] = system: A549; assay: Cytotoxicity against human A549 cells after 6 days by MTT assay; conditions: A549, 144 h, read-out: ED50 (the source's name)
[4] = system: HT-29; assay: Cytotoxicity against human HT-29 cells after 6 days by MTT assay; conditions: HT-29, 144 h, read-out: ED50 (the source's name)

SMILES	EC50 [1]	EC50 [2]	EC50 [3]	EC50 [4]
C/C=C(\CC[C@@H](C)[C@H]1CC[C@H]2[C@@H]3CCC4=CC(=O)CC[C@]4(C)[C@H]3CC[C@]12C)C(C)C	> 50 µg/mL	> 50 µg/mL	> 50 µg/mL	> 50 µg/mL
C=CC(CC[C@@H](C)[C@H]1CC[C@H]2[C@@H]3C[C@@H](O)C4=CC(=O)CC[C@]4(C)[C@H]3CC[C@]12C)(OO)C(C)C (stereo not given in full)	0.4 µg/mL (≈ 0.872 µM)	1.8 µg/mL (≈ 3.92 µM)	1.8 µg/mL (≈ 3.92 µM)	1.7 µg/mL (≈ 3.71 µM)
C/C=C(\CC[C@@H](C)[C@H]1CC[C@H]2[C@@H]3CC(=O)C4=CC(=O)CC[C@]4(C)[C@H]3CC[C@]12C)C(C)C	0.6 µg/mL (≈ 1.41 µM)	5.9 µg/mL (≈ 13.9 µM)	3.1 µg/mL (≈ 7.3 µM)	0.4 µg/mL (≈ 0.942 µM)
C=CC(CC[C@@H](C)[C@H]1CC[C@H]2[C@@H]3CC(=O)C4=CC(=O)CC[C@]4(C)[C@H]3CC[C@]12C)(OO)C(C)C (stereo not given in full)	0.8 µg/mL (≈ 1.75 µM)	4 µg/mL (≈ 8.76 µM)	2.5 µg/mL (≈ 5.47 µM)	1.4 µg/mL (≈ 3.07 µM)
C/C=C(\CC[C@@H](C)[C@H]1CC[C@H]2[C@@H]3C[C@@H](O)C4=CC(=O)CC[C@]4(C)[C@H]3CC[C@]12C)C(C)C	0.9 µg/mL (≈ 2.11 µM)	4.6 µg/mL (≈ 10.8 µM)	2.3 µg/mL (≈ 5.39 µM)	1.2 µg/mL (≈ 2.81 µM)
